# Results from ChEMBL document CHEMBL1201861, “Genomics of Drug Sensitity in Cancer screening data, Wellcome Trust Sanger Institute”.
# Key:
# RPMI 8402 = assay: SANGER: Inhibition of human RPMI-8402 cell growth in a cell viability assay.; type: functional, cell-based
# LC-1F = assay: cells; type: functional, cell-based; details: Homo sapiens;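 note: growth inhibition of human LC-1F cells, read out with a cell viability assay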
# Description: SANGER: Inhibition of human LC-1F cell growth in a cell viability assay.
# MeWo = assay: cells; type: functional, cell-based; details: Homo sapiens;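 note: growth inhibition of MeWo cells, determined by a cell viability readout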
# Description: SANGER: Inhibition of human Mewo cell growth in a cell viability assay.
# COLO-678 = assay: cells; type: functional, cell-based; details: Homo sapiens
# Description: SANGER: Inhibition of human COLO-678 cell growth in a cell viability assay.
# A2780 = assay: cells; type: functional, cell-based; details: Homo sapiens;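 note: growth inhibition of A2780 cells, read out with a cell viability assay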
# Description: SANGER: Inhibition of human A2780 cell growth in a cell viability assay.
# TE-15 = assay: cells; type: functional, cell-based; details: Homo sapiens;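 note: cell viability readout of growth inhibition in TE-15 cells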
# Description: SANGER: Inhibition of human TE-15 cell growth in a cell viability assay.
# RVH-421 = assay: cells; type: functional, cell-based; details: Homo sapiens
# Description: SANGER: Inhibition of human RVH-421 cell growth in a cell viability assay.
# JEG-3 = assay: cells; type: functional, cell-based; details: Homo sapiens;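 note: growth inhibition of human JEG-3 cells, read out with a cell viability assay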
# Description: SANGER: Inhibition of human JEG-3 cell growth in a cell viability assay.
# SiHa = assay: cells; type: functional, cell-based; details: Homo sapiens;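 note: Viability-based readout of growth inhibition in SiHa cells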
# Description: SANGER: Inhibition of human SiHa cell growth in a cell viability assay.
# BC-3 = assay: cells; type: functional, cell-based; details: Homo sapiens;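 note: cell viability assay measuring growth inhibition of human BC-3 cells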
# Description: SANGER: Inhibition of human BC-3 cell growth in a cell viability assay.
# SNU-C1 = assay: cells; type: functional, cell-based; details: Homo sapiens;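 note: growth inhibition of SNU-C1 human cells, read out by a cell viability assay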
# Description: SANGER: Inhibition of human SNU-C1 cell growth in a cell viability assay.
# NCI-H2141 = assay: cells; type: functional, cell-based; details: Homo sapiens;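 note: growth inhibition of human NCI-H2141 cells, read out with a cell viability assay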
# Description: SANGER: Inhibition of human NCI-H2141 cell growth in a cell viability assay.
# SAS = assay: cells; type: functional, cell-based; details: Homo sapiens;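 note: growth inhibition of SAS cells, read out with a cell viability assay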
# Description: SANGER: Inhibition of human SAS cell growth in a cell viability assay.
# GP5d = assay: cells; type: functional, cell-based; details: Homo sapiens;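 note: growth inhibition of human GP5d cells, read out with a cell viability assay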
# Description: SANGER: Inhibition of human GP5d cell growth in a cell viability assay.
# J82 = assay: cells; type: functional, cell-based; details: Homo sapiens;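 note: growth inhibition of J82 cells, read out with a cell viability assay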
# Description: SANGER: Inhibition of human J82 cell growth in a cell viability assay.
# NCI-H2052 = assay: cells; type: functional, cell-based; details: Homo sapiens;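 note: growth inhibition of NCI-H2052 cells, read out with a cell viability assay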
# Description: SANGER: Inhibition of human NCI-H2052 cell growth in a cell viability assay.
# NCI-H2405 = assay: cells; type: functional, cell-based; details: Homo sapiens;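 note: growth inhibition of the human cell line, read out with a cell viability assay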
# Description: SANGER: Inhibition of human NCI-H2405 cell growth in a cell viability assay.
# EGI-1 = assay: cells; type: functional, cell-based; details: Homo sapiens;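 note: cell viability readout used to gauge growth inhibition of EGI-1 cells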
# Description: SANGER: Inhibition of human EGI-1 cell growth in a cell viability assay.
# KYSE-410 = assay: cells; type: functional, cell-based; details: Homo sapiens;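 note: growth inhibition of KYSE-410 cells, measured through a cell viability readout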
# Description: SANGER: Inhibition of human KYSE-410 cell growth in a cell viability assay.
# SK-MM-2 = assay: cells; type: functional, cell-based; details: Homo sapiens;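 note: growth inhibition of human SK-MM-2 cells, read out with a cell viability assay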
# Description: SANGER: Inhibition of human SK-MM-2 cell growth in a cell viability assay.
# PANC-08-13 = assay: cells; type: functional, cell-based; details: Homo sapiens
# Description: SANGER: Inhibition of human PANC-08-13 cell growth in a cell viability assay.
# MKN-45 = assay: cells; type: functional, cell-based; details: Homo sapiens;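 note: growth inhibition of human MKN-45 cells, measured with a cell viability assay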
# Description: SANGER: Inhibition of human MKN45 cell growth in a cell viability assay.
# MKN-1 = assay: cells; type: functional, cell-based; details: Homo sapiens;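 note: growth inhibition of human MKN1 cells, read out by a cell viability measurement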
# Description: SANGER: Inhibition of human MKN1 cell growth in a cell viability assay.
# SNU-387 = assay: cells; type: functional, cell-based; details: Homo sapiens
# Description: SANGER: Inhibition of human SNU-387 cell growth in a cell viability assay.
# GDM-1 = assay: cells; type: functional, cell-based; details: Homo sapiens;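 note: cell viability readout used to measure growth inhibition of human GDM-1 cells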
# Description: SANGER: Inhibition of human GDM-1 cell growth in a cell viability assay.
# DoTc2-4510 = assay: cells; type: functional, cell-based; details: Homo sapiens
# SW1573 = assay: cells; type: functional, cell-based; details: Homo sapiens;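 note: growth inhibition of SW1573 cells, read out with a cell viability assay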
# Description: SANGER: Inhibition of human SW1573 cell growth in a cell viability assay.
# KYSE-510 = assay: cells; type: functional, cell-based; details: Homo sapiens;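 note: cell viability readout used to measure how strongly growth of the cell line is suppressed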
# Description: SANGER: Inhibition of human KYSE-510 cell growth in a cell viability assay.
# UACC-893 = assay: cells; type: functional, cell-based; details: Homo sapiens
# Description: SANGER: Inhibition of human UACC-893 cell growth in a cell viability assay.
# LB647-SCLC = assay: cells; type: functional, cell-based; details: Homo sapiens;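 note: cell growth inhibition, read out by a viability assay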
# Description: SANGER: Inhibition of human LB647-SCLC cell growth in a cell viability assay.
# Capan-2 = assay: cells; type: functional, cell-based; details: Homo sapiens;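 note: Capan-2 cell growth inhibition, read out with a viability assay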
# Description: SANGER: Inhibition of human Capan-2 cell growth in a cell viability assay.
# CAL-72 = assay: cells; type: functional, cell-based; details: Homo sapiens;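 note: cell viability assay measuring inhibition of proliferation in the CAL-72 cell line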
# Description: SANGER: Inhibition of human CAL-72 cell growth in a cell viability assay.
# HT1197 = assay: cells; type: functional, cell-based, HT-1197; details: Homo sapiens
# Description: SANGER: Inhibition of human HT-1197 cell growth in a cell viability assay.
# NCI-N87 = assay: cells; type: functional, cell-based; details: Homo sapiens;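 note: growth inhibition of human NCI-N87 cells, read out with a cell viability assay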
# Description: SANGER: Inhibition of human NCI-N87 cell growth in a cell viability assay.
# MDA-MB-231 = assay: cells; type: functional, cell-based; details: Homo sapiens
# Description: SANGER: Inhibition of human MDA-MB-231 cell growth in a cell viability assay.
# BL-41 = assay: cells; type: functional, cell-based; details: Homo sapiens;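 note: growth inhibition of human BL-41 cells, read out with a cell viability assay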
# Description: SANGER: Inhibition of human BL-41 cell growth in a cell viability assay.
# LB996-RCC = assay: cells; type: functional, cell-based; details: Homo sapiens
# Description: SANGER: Inhibition of human LB996-RCC cell growth in a cell viability assay.
# NCI-H1993 = assay: cells; type: functional, cell-based; details: Homo sapiens;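 note: growth inhibition of the cancer cell line, assessed with a cell viability assay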
# Description: SANGER: Inhibition of human NCI-H1993 cell growth in a cell viability assay.
# P31-FUJ = assay: cells; type: functional, cell-based; details: Homo sapiens;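 note: growth inhibition of P31-FUJ cells, read out with a viability assay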
# Description: SANGER: Inhibition of human P31-FUJ cell growth in a cell viability assay.
# SK-MES-1 = assay: cells; type: functional, cell-based; details: Homo sapiens;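 note: growth inhibition of human SK-MES-1 cells, read out with a cell viability assay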
# Description: SANGER: Inhibition of human SK-MES-1 cell growth in a cell viability assay.
# T98G = assay: cells; type: functional, cell-based; details: Homo sapiens;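 note: growth inhibition of T98G cells, read out by a cell viability assay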
# Description: SANGER: Inhibition of human T98G cell growth in a cell viability assay.
# MHH-ES-1 = assay: cells; type: functional, cell-based; details: Homo sapiens
# Description: SANGER: Inhibition of human MHH-ES-1 cell growth in a cell viability assay.
# NCI-H1436 = assay: cells; type: functional, cell-based; details: Homo sapiens;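 note: growth suppression of human NCI-H1436 cells, determined with a cell viability readout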
# Description: SANGER: Inhibition of human NCI-H1436 cell growth in a cell viability assay.
# HT-1080 = assay: cells; type: functional, cell-based; details: Homo sapiens
# Description: SANGER: Inhibition of human HT-1080 cell growth in a cell viability assay.
# COLO-680N = assay: cells; type: functional, cell-based; details: Homo sapiens;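 note: cell viability assay used to measure inhibition of COLO-680N cell growth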
# Description: SANGER: Inhibition of human COLO-680N cell growth in a cell viability assay.
# BFTC-905 = assay: cells; type: functional, cell-based; details: Homo sapiens
# Description: SANGER: Inhibition of human BFTC-905 cell growth in a cell viability assay.
# BC1 cell line = assay: SANGER: Inhibition of human BC-1 cell growth in a cell viability assay.; type: functional, cell-based
# MEL-JUSO = assay: cells; type: functional, cell-based; details: Homo sapiens;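 note: growth inhibition of human MEL-JUSO cells, read out with a cell viability assay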
# Description: SANGER: Inhibition of human MEL-JUSO cell growth in a cell viability assay.
# OVCAR-3 = assay: cells; type: functional, cell-based; details: Homo sapiens;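 note: growth inhibition of human OVCAR-3 cells, determined by a cell viability assay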
# Description: SANGER: Inhibition of human OVCAR-3 cell growth in a cell viability assay.
# Daudi = assay: cells; type: functional, cell-based; details: Homo sapiens;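 note: growth inhibition of Daudi cells, read out by a viability assay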
# Description: SANGER: Inhibition of human Daudi cell growth in a cell viability assay.
# SIG-M5 = assay: cells; type: functional, cell-based; details: Homo sapiens;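 note: cell viability assay read-out, measuring how strongly growth of cultured human SIG-M5 cells is inhibited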
# Description: SANGER: Inhibition of human SIG-M5 cell growth in a cell viability assay.
# NCI-H889 = assay: cells; type: functional, cell-based; details: Homo sapiens;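 note: cell growth inhibition of the cell line, read out with a viability assay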
# Description: SANGER: Inhibition of human NCI-H889 cell growth in a cell viability assay.
# DOK = assay: cells; type: functional, cell-based; details: Homo sapiens;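 note: cell viability assay read-out, values reflect inhibition of cell growth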
# Description: SANGER: Inhibition of human DOK cell growth in a cell viability assay.
# NCI-H1693 = assay: cells; type: functional, cell-based; details: Homo sapiens;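 note: growth inhibition of the human cell line, read out with a cell viability assay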
# Description: SANGER: Inhibition of human NCI-H1693 cell growth in a cell viability assay.
# NCI-H1651 = assay: cells; type: functional, cell-based; details: Homo sapiens;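 note: Read-out is a cell viability assay, with IC50 expressing inhibition of NCI-H1651 cell growth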
# Description: SANGER: Inhibition of human NCI-H1651 cell growth in a cell viability assay.
# G-402 = assay: cells; type: functional, cell-based; details: Homo sapiens
# Description: SANGER: Inhibition of human G-402 cell growth in a cell viability assay.
# COR-L279 = assay: SANGER: Inhibition of human COR-L279 cell growth in a cell viability assay.; type: functional, cell-based
# BXPC-3 = assay: cells; type: functional, cell-based; details: Homo sapiens;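 note: growth inhibition of human BxPC-3 cells, read out by a cell viability assay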
# Description: SANGER: Inhibition of human BxPC-3 cell growth in a cell viability assay.
# GAMG = assay: cells; type: functional, cell-based; details: Homo sapiens;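 note: cell growth inhibition measured by a viability assay in the GAMG human cell line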
# Description: SANGER: Inhibition of human GAMG cell growth in a cell viability assay.
# OAW-28 = assay: cells; type: functional, cell-based; details: Homo sapiens;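 note: growth inhibition of OAW-28 cells, read out with a cell viability assay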
# Description: SANGER: Inhibition of human OAW-28 cell growth in a cell viability assay.
# A-431 = assay: cells; type: functional, cell-based; details: Homo sapiens;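 note: growth inhibition of A-431 cells, determined with a cell viability read-out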
# Description: SANGER: Inhibition of human A431 cell growth in a cell viability assay.
# SK-OV-3 = assay: cells; type: functional, cell-based; details: Homo sapiens;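 note: growth inhibition of SK-OV-3 human cells, read out with a cell viability assay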
# Description: SANGER: Inhibition of human SK-OV-3 cell growth in a cell viability assay.
# M059J = assay: cells; type: functional, cell-based; details: Homo sapiens;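 note: growth inhibition of M059J cells, read out with a cell viability assay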
# Description: SANGER: Inhibition of human M059J cell growth in a cell viability assay.
# NCI-H661 = assay: cells; type: functional, cell-based; details: Homo sapiens;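 note: cell viability assay read-out, IC50 being the concentration that inhibits growth of the cells by half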
# Description: SANGER: Inhibition of human NCI-H661 cell growth in a cell viability assay.
compound,measurement,setting,value
O=c1[nH]c2ccccc2n1C1CCN(Cc2ccc(-c3nc4cc5[nH]cnc5cc4nc3-c3ccccc3)cc2)CC1,IC50,RPMI 8402,> 2560 nM
same,IC50,LC-1F,> 2560 nM
same,IC50,MeWo,> 2560 nM
same,IC50,COLO-678,> 2.56 µM
same,IC50,A2780,> 2560 nM
same,IC50,TE-15,> 2560 nM
same,IC50,RVH-421,> 2560 nM
same,IC50,JEG-3,> 2560 nM
same,IC50,SiHa,> 2560 nM
same,IC50,BC-3,> 2560 nM
same,IC50,SNU-C1,2010 nM
same,IC50,NCI-H2141,> 2.56 µM
same,IC50,SAS,> 2560 nM
same,IC50,GP5d,> 2560 nM
same,IC50,J82,> 2560 nM
same,IC50,NCI-H2052,> 2560 nM
same,IC50,NCI-H2405,> 2560 nM
same,IC50,EGI-1,> 2560 nM
same,IC50,KYSE-410,> 2560 nM
same,IC50,SK-MM-2,> 2560 nM
same,IC50,PANC-08-13,> 2560 nM
same,IC50,MKN-45,> 2560 nM
same,IC50,MKN-1,> 2560 nM
same,IC50,SNU-387,> 2560 nM
same,IC50,GDM-1,> 2560 nM
same,IC50,DoTc2-4510,> 2560 nM
same,IC50,SW1573,> 2560 nM
same,IC50,KYSE-510,2210 nM
same,IC50,UACC-893,> 2.56 µM
same,IC50,LB647-SCLC,> 2.56 µM
same,IC50,Capan-2,> 2560 nM
same,IC50,CAL-72,> 2.56 µM
same,IC50,HT1197,> 2560 nM
same,IC50,NCI-N87,> 2.56 µM
same,IC50,MDA-MB-231,> 2560 nM
same,IC50,BL-41,> 2560 nM
same,IC50,LB996-RCC,> 2560 nM
same,IC50,NCI-H1993,> 2560 nM
same,IC50,P31-FUJ,> 2.56 µM
same,IC50,SK-MES-1,2100 nM
same,IC50,T98G,> 2560 nM
same,IC50,MHH-ES-1,> 2560 nM
same,IC50,NCI-H1436,> 2560 nM
same,IC50,HT-1080,> 2560 nM
same,IC50,COLO-680N,> 2560 nM
same,IC50,BFTC-905,> 2560 nM
same,IC50,BC1 cell line,> 2560 nM
same,IC50,MEL-JUSO,> 2560 nM
same,IC50,OVCAR-3,1840 nM
same,IC50,Daudi,> 2560 nM
same,IC50,SIG-M5,> 2560 nM
same,IC50,NCI-H889,> 2560 nM
same,IC50,DOK,> 2560 nM
same,IC50,NCI-H1693,> 2.56 µM
same,IC50,NCI-H1651,> 2560 nM
same,IC50,G-402,1780 nM
same,IC50,COR-L279,1680 nM
same,IC50,BXPC-3,2220 nM
same,IC50,GAMG,> 2560 nM
same,IC50,OAW-28,> 2560 nM
same,IC50,A-431,> 2560 nM
same,IC50,SK-OV-3,> 2560 nM
same,IC50,M059J,> 2560 nM
same,IC50,NCI-H661,> 2560 nM
Fc1cc(-c2cc[nH]/c(=N/c3ccc(-n4cnc(N5CCOCC5)n4)cc3)n2)cc(N2CCOCC2)c1,IC50,RPMI 8402,605 nM
same,IC50,LC-1F,2530 nM
same,IC50,MeWo,199 nM
same,IC50,COLO-678,3.65 µM
same,IC50,A2780,653 nM
same,IC50,TE-15,375 nM
same,IC50,RVH-421,415 nM
same,IC50,JEG-3,705 nM
same,IC50,SiHa,1110 nM
same,IC50,BC-3,598 nM
same,IC50,SNU-C1,390 nM
same,IC50,NCI-H2141,> 5.12 µM
same,IC50,SAS,1940 nM
same,IC50,GP5d,514 nM
same,IC50,J82,800 nM
same,IC50,NCI-H2052,1650 nM
same,IC50,NCI-H2405,1210 nM
same,IC50,EGI-1,686 nM
same,IC50,KYSE-410,1280 nM
same,IC50,SK-MM-2,1270 nM
same,IC50,PANC-08-13,90 nM
same,IC50,MKN-45,994 nM
same,IC50,MKN-1,549 nM
same,IC50,SNU-387,417 nM
same,IC50,GDM-1,204 nM
same,IC50,DoTc2-4510,225 nM
same,IC50,SW1573,881 nM
same,IC50,KYSE-510,447 nM
same,IC50,UACC-893,4.99 µM
same,IC50,LB647-SCLC,> 5.12 µM
same,IC50,Capan-2,1010 nM
same,IC50,CAL-72,> 5.12 µM
same,IC50,HT1197,611 nM
same,IC50,NCI-N87,> 5.12 µM
same,IC50,MDA-MB-231,967 nM
same,IC50,BL-41,307 nM
same,IC50,LB996-RCC,522 nM
same,IC50,NCI-H1993,2280 nM
same,IC50,P31-FUJ,4.64 µM
same,IC50,SK-MES-1,153 nM
same,IC50,T98G,567 nM
same,IC50,MHH-ES-1,274 nM
same,IC50,NCI-H1436,1180 nM
same,IC50,HT-1080,428 nM
same,IC50,COLO-680N,565 nM
same,IC50,BFTC-905,141 nM
same,IC50,BC1 cell line,491 nM
same,IC50,MEL-JUSO,286 nM
same,IC50,OVCAR-3,567 nM
same,IC50,Daudi,381 nM
same,IC50,SIG-M5,124 nM
same,IC50,NCI-H889,2260 nM
same,IC50,DOK,858 nM
same,IC50,NCI-H1693,> 5.12 µM
same,IC50,NCI-H1651,1070 nM
same,IC50,G-402,258 nM
same,IC50,COR-L279,1130 nM
same,IC50,BXPC-3,351 nM
same,IC50,GAMG,1340 nM
same,IC50,OAW-28,1450 nM
same,IC50,A-431,249 nM
same,IC50,SK-OV-3,2070 nM
same,IC50,M059J,926 nM
same,IC50,NCI-H661,501 nM
